Reference: patent publication US20050245399A1, “Pyrazole derivatives as herbicidal compositions containing them” (ISHIHARA SANGYO KAISHA, LTD., priority 2004, published 2005)

What was measured:
Assay type in all cases: in vivo
[1] = test system: green foxtail (Setaria viridis L.), SETVI; experiment: Test Example 2 post-emergence (foliage treatment) herbicidal activity, SETVI; details: 63 g a.i./ha
Procedure, shortened: (§1)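 A small sprayer delivered the diluted WP or EC formulation (500 L/ha water, 0.1% v/v spreader) over emerged seedlings in upland soil pots. Damage relative to untreated plants was graded visually from 0 to 100% three weeks or so later (days 20-23).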

[2] = test system: green foxtail (Setaria viridis L.): SETVI; experiment: Test Example 1 pre-emergence herbicidal activity, SETVI; details: visually observed 20th to 23rd day after application
Procedure, shortened: (§2)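 Visual scoring 20–23 days after treatment gives percent growth control, where 0 equals untreated and 100 means complete kill. Treatment: pre-emergence spray of formulated compound in 500 L/ha water, one day after sowing in upland soil.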

[3] = test system: japanese bulrush (Scirpus juncoides: SCPJO); experiment: Test Example 3 water application herbicidal activity (paddy), SCPJO; details: 63 g a.i./ha, water application under submerged condition at 0.5 leaf stage, visually observed 14th day after application; 0 = untreated control, 100 = complete kill
Procedure, shortened: (§3)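 Submerged application in flooded paddy soil (3–4 cm water); weeds treated at 0.5-leaf stage, transplanted rice 4 d after transplanting. Scored visually as % growth control: weeds at 14 d, rice at 21 d.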

[4] = test system: prickly sida (Sida spinosa L.): SEDSP; experiment: Test Example 1 pre-emergence herbicidal activity, SIDSP; details: visually observed 20th to 23rd day after application
Procedure, shortened: as §2

[5] = test system: crabgrass (Digitaria sanguinalis L.), DIGSA; experiment: Test Example 2 post-emergence (foliage treatment) herbicidal activity, DIGSA; details: 63 g a.i./ha
Procedure, shortened: (§4)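 Foliar spray of formulated compound (500 L/ha dilution water, 0.1% v/v spreader) onto young potted plants at defined leaf stages. Scored 0-100% by visual inspection 20-23 d post-spray.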

[6] = test system: rice (Oryza sativa L.: ORYSA); experiment: Test Example 3 water application herbicidal activity (paddy), transplanted rice ORYSA; details: 63 g a.i./ha, water application 4th day after transplantation of 2 leaf stage rice, visually observed 21st day after application; 0 = untreated control, 100 = complete kill
Procedure, shortened: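 Rice at 2-leaf stage is transplanted into flooded puddled soil and treated by water application 4 days later, at a predetermined active-ingredient dose. Crop injury is rated visually as growth control (0–100%) 21 days after treatment.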

[7] = test system: wheat (Triticum aestivum L.), TRZAX; experiment: Test Example 2 post-emergence (foliage treatment) herbicidal activity, TRZAX; details: 63 g a.i./ha
Procedure, shortened: as §1

[8] = test system: rice (Oryza sativa L.): ORYSA; experiment: Test Example 1 pre-emergence herbicidal activity, ORYSA; details: visually observed 20th to 23rd day after application
Procedure, shortened: as §2

[9] = test system: corn (Zea mays L.), ZEAMX; experiment: Test Example 2 post-emergence (foliage treatment) herbicidal activity, ZEAMX; details: 63 g a.i./ha
Procedure, shortened: as §1

[10] = test system: velvetleaf (Abutilon theophrasti), ABUTH; experiment: Test Example 2 post-emergence (foliage treatment) herbicidal activity, ABUTH; details: 63 g a.i./ha
Procedure, shortened: as §1

[11] = test system: soybean (Glycine max Merr.), GLXMA; experiment: Test Example 2 post-emergence (foliage treatment) herbicidal activity, GLXMA; details: 63 g a.i./ha
Procedure, shortened: as §1

[12] = test system: velvetleaf (Abutilon theophrasti): ABUTH; experiment: Test Example 1 pre-emergence herbicidal activity, ABUTH; details: visually observed 20th to 23rd day after application
Procedure, shortened: as §2

[13] = test system: japanese ribbon wapato (Sagittaria pygmaea: SA GPY); experiment: Test Example 3 water application herbicidal activity (paddy), SAGPY; details: 63 g a.i./ha, water application under submerged condition, tubers planted, visually observed 14th day after application; 0 = untreated control, 100 = complete kill
Procedure, shortened: as §3

[14] = test system: barnyardgrass (Echinochloa crus-galli L.), ECHCG; experiment: Test Example 2 post-emergence (foliage treatment) herbicidal activity, ECHCG; details: 63 g a.i./ha
Procedure, shortened: as §4

[15] = test system: corn (Zea mays L.): ZEAMX; experiment: Test Example 1 pre-emergence herbicidal activity, ZEAMX; details: visually observed 20th to 23rd day after application
Procedure, shortened: as §2

[16] = test system: wheat (Triticum aestivum L.): TRZAX; experiment: Test Example 1 pre-emergence herbicidal activity, TRZAX; details: visually observed 20th to 23rd day after application
Procedure, shortened: as §2

[17] = test system: crabgrass (Digitaria sanguinalis L.): DIGSA; experiment: Test Example 1 pre-emergence herbicidal activity, DIGSA; details: visually observed 20th to 23rd day after application
Procedure, shortened: as §2

[18] = test system: prickly sida (Sida spinosa L.), SIDSP; experiment: Test Example 2 post-emergence (foliage treatment) herbicidal activity, SIDSP; details: 63 g a.i./ha
Procedure, shortened: as §1

[19] = test system: redroot pigweed (Amaranthus retroflexus L.): AMARE; experiment: Test Example 1 pre-emergence herbicidal activity, AMARE; details: visually observed 20th to 23rd day after application
Procedure, shortened: as §2

[20] = test system: rice (Oryza sativa L.), ORYSA; experiment: Test Example 2 post-emergence (foliage treatment) herbicidal activity, ORYSA; details: 63 g a.i./ha
Procedure, shortened: as §4

[21] = test system: redroot pigweed (Amaranthus retroflexus L.), AMARE; experiment: Test Example 2 post-emergence (foliage treatment) herbicidal activity, AMARE; details: 63 g a.i./ha
Procedure, shortened: as §4

[22] = test system: barnyardgrass (Echinochloa crus-galli L.): ECHCG; experiment: Test Example 1 pre-emergence herbicidal activity, ECHCG; details: visually observed 20th to 23rd day after application
Procedure, shortened: as §2

[23] = test system: soybean (Glycine max Merr.): GLXMA; experiment: Test Example 1 pre-emergence herbicidal activity, GLXMA; details: visually observed 20th to 23rd day after application
Procedure, shortened: as §2

[24] = test system: barnyardgrass (Echinochiloa oryzicola: ECHOR); experiment: Test Example 3 water application herbicidal activity (paddy), ECHOR; details: 63 g a.i./ha, water application under submerged condition at 0.5 leaf stage, visually observed 14th day after application; 0 = untreated control, 100 = complete kill
Procedure, shortened: as §3

Structure (SMILES) | growth controlling degree, SETVI [1] [%] | Pre-emergence Herbicidal Activity SETVI (growth controlling degree) ([2]; Rate 63 g a.i./ha) [%] | growth controlling degrees (%) SCPJO [3] [%] | Pre-emergence Herbicidal Activity SIDSP (growth controlling degree) ([4]; Rate 63 g a.i./ha) [%] | growth controlling degree, DIGSP [5] [%] | growth controlling degrees (%) ORYSA [6] [%] | growth controlling degree, TRZAX [7] [%] | Pre-emergence Herbicidal Activity ORYSA (growth controlling degree) ([8]; Rate 63 g a.i./ha) [%] | growth controlling degree, ZEAMX [9] [%] | growth controlling degree, ABUTH [10] [%] | growth controlling degree, GLXMA [11] [%] | Pre-emergence Herbicidal Activity ABUTH (growth controlling degree) ([12]; Rate 63 g a.i./ha) [%] | growth controlling degrees (%) SAGPY [13] [%] | growth controlling degree, ECHCO [14] [%] | Pre-emergence Herbicidal Activity ZEAMX (growth controlling degree) ([15]; Rate 63 g a.i./ha) [%] | Pre-emergence Herbicidal Activity TRZAX (growth controlling degree) ([16]; Rate 63 g a.i./ha) [%] | growth controlling degree, SIDSP [18] [%] | growth controlling degree, ORYSA [20] [%] | growth controlling degree, AMARE [21] [%] | growth controlling degrees (%) ECHOR [24] [%] | also measured
COc1c(Cl)cc(F)c(-c2nn(C)c(OC(F)F)c2Cl)c1NC(=O)c1ccc(F)cc1F [Compound 1-30] | 100 | 100 | 98 | 100 | 100 | 60 | 50 | 10 | 60 | 100 | 95 | 100 | 100 | 100 | 10 | 0 | 100 | 90 | 100 | 100 | Pre-emergence Herbicidal Activity DIGSP (growth controlling degree) ([17]; Rate 63 g a.i./ha): 100%; Pre-emergence Herbicidal Activity AMARE (growth controlling degree) ([19]; Rate 63 g a.i./ha): 100%; Pre-emergence Herbicidal Activity ECHCG (growth controlling degree) ([22]; Rate 63 g a.i./ha): 60%; Pre-emergence Herbicidal Activity GLXMA (growth controlling degree) ([23]; Rate 63 g a.i./ha): 10%
COc1c(Cl)cc(F)c(-c2nn(C)c(OC(F)F)c2Cl)c1NC(=O)c1cccc(Cl)c1 [Compound 1-26] | 100 | 100 | 70 | 70 | 60 | 60 | 30 | 30 | 40 | 100 | 70 | 100 | 100 | 95 | 10 | 10 | 100 | 80 | 100 | 100 | Pre-emergence Herbicidal Activity DIGSP (growth controlling degree) ([17]; Rate 63 g a.i./ha): 98%; Pre-emergence Herbicidal Activity AMARE (growth controlling degree) ([19]; Rate 63 g a.i./ha): 100%; Pre-emergence Herbicidal Activity ECHCG (growth controlling degree) ([22]; Rate 63 g a.i./ha): 70%; Pre-emergence Herbicidal Activity GLXMA (growth controlling degree) ([23]; Rate 63 g a.i./ha): 10%
COc1c(Cl)cc(F)c(-c2nn(C)c(OC(F)F)c2Cl)c1NC(=O)CCOc1ccccc1 [Compound 1-34] | 100 | 70 | 50 | 70 | 70 | 30 | 30 | 0 | 50 | 100 | 70 | 30 | 80 | 70 | 0 | 0 | 100 | 40 | 100 | 100 | Pre-emergence Herbicidal Activity DIGSP (growth controlling degree) ([17]; Rate 63 g a.i./ha): 60%; Pre-emergence Herbicidal Activity AMARE (growth controlling degree) ([19]; Rate 63 g a.i./ha): 100%; Pre-emergence Herbicidal Activity ECHCG (growth controlling degree) ([22]; Rate 63 g a.i./ha): 0%; Pre-emergence Herbicidal Activity GLXMA (growth controlling degree) ([23]; Rate 63 g a.i./ha): 0%
COc1c(Cl)cc(F)c(-c2nn(C)c(OC(F)F)c2Cl)c1NC(=O)c1ccccc1C(F)(F)F [Compound 1-25] | 100 | 95 | 95 | 100 | 100 | 60 | 40 | 40 | 90 | 100 | 98 | 100 | 100 | 98 | 0 | 0 | 100 | 90 | 100 | 98 | Pre-emergence Herbicidal Activity DIGSP (growth controlling degree) ([17]; Rate 63 g a.i./ha): 98%; Pre-emergence Herbicidal Activity AMARE (growth controlling degree) ([19]; Rate 63 g a.i./ha): 100%; Pre-emergence Herbicidal Activity ECHCG (growth controlling degree) ([22]; Rate 63 g a.i./ha): 60%; Pre-emergence Herbicidal Activity GLXMA (growth controlling degree) ([23]; Rate 63 g a.i./ha): 0%
COc1ccc(OC(=O)N(C(=O)Oc2ccc(OC)cc2)c2c(OC)c(Cl)cc(F)c2-c2nn(C)c(OC(F)F)c2Cl)cc1 [Compound 1-65] | 0 |  | 0 |  | 0 | 20 | 0 |  | 0 | 0 | 10 |  | 0 | 0 |  |  | 0 | 0 | 10 | 50 | Pre-emergence Herbicidal Activity SETVI (growth controlling degree) ([2]; Rate 125 g a.i./ha): 10%; Pre-emergence Herbicidal Activity SIDSP (growth controlling degree) ([4]; Rate 125 g a.i./ha): 10%; Pre-emergence Herbicidal Activity ORYSA (growth controlling degree) ([8]; Rate 125 g a.i./ha): 0%; Pre-emergence Herbicidal Activity ABUTH (growth controlling degree) ([12]; Rate 125 g a.i./ha): 10%; Pre-emergence Herbicidal Activity ZEAMX (growth controlling degree) ([15]; Rate 125 g a.i./ha): 0%; Pre-emergence Herbicidal Activity TRZAX (growth controlling degree) ([16]; Rate 125 g a.i./ha): 0%; Pre-emergence Herbicidal Activity DIGSP (growth controlling degree) ([17]; Rate 125 g a.i./ha): 0%; Pre-emergence Herbicidal Activity AMARE (growth controlling degree) ([19]; Rate 125 g a.i./ha): 20%; Pre-emergence Herbicidal Activity ECHCG (growth controlling degree) ([22]; Rate 125 g a.i./ha): 0%; Pre-emergence Herbicidal Activity GLXMA (growth controlling degree) ([23]; Rate 125 g a.i./ha): 0%
